The text below walks through data of PubChem BioAssay AID179 (DTP/NCI, 2004).

Molecules are shown by their SMILES. “And” between values parts separate entries of the source, which are not always exact repeats. Equal values may be shown once. The source made the active and inactive calls.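 The calls were made as follows: active = compounds giving half or more protection of infected cells from virus-caused growth loss, again on retest; inactive = the rest.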 Where a SMILES comes first, the peptide text is derived from it. [ ]: non-standard residue; d: D form. The star is where a group is joined. Nle = CCCC[CH](N)C(=O)O; Cbz = O=C(OCc1ccccc1)*; Boc = CC(C)(C)OC(=O)*; OBn = c1ccc(CO*)cc1

This assay has as its system CEM cells HIV-1 protection, formazan growth assay. Briefly: NCI AIDS Antiviral Assay. Particulars: for IC50: measured here: growth of uninfected CEM cells. In a few lines:
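Screen of anti-HIV-1 activity in human CEM cells using a formazan-based growth measurement at five drug concentrations. Hits with 50% or greater protection were repeated, and confirmation required reproducible complete protection.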

For orientation: EC50 means the midpoint of the concentration-response curve. Usually IC50 stands for the concentration that inhibits the measured activity by half. High values mean a need for much substance, low ones inhibition by little substance.

Consider `CN(C)C(C(N)=O)c1ccc(Cl)cc1` (configuration not stated), for which the outcome was inactive.

With `COc1ccc(S(=O)(=O)O)cc1-n1nc(C(=O)Nc2ccccc2)n[n+]1-c1cc(S(=O)(=O)[O-])ccc1OC`, the EC50 is over 200 µM and the IC50 was over 200 µM.

Regarding `CN(C)CCNC(=O)Cn1ccc(=O)c2cc([N+](=O)[O-])ccc21`, the EC50 was over 200 µM and the IC50 is over 200 µM. Take `O=NCC(=O)OCc1ccccc1`: the EC50 is over 200 µM and the IC50 is over 200 µM. As for `CCCCC(NC(=O)C1CCCN1C(=O)OCc1ccccc1)C(=O)OCc1ccccc1` (stereo not drawn) (Cbz-Pro-[Nle]-OBn; configuration not given here), the EC50 is over 41.7 µM and the IC50 was over 41.7 µM. On to `O=C(CCCN1CCC(C(O)c2ccc(F)cc2)CC1)c1ccc(F)cc1` (configuration not stated), for which the EC50 was over 95.5 µM and the IC50 is 79.4 µM. With `c1ccc([P+](Cc2ccccc2C[P+](c2ccccc2)(c2ccccc2)c2ccccc2)(c2ccccc2)c2ccccc2)cc1`, the EC50 is over 200 µM; the IC50 is 129 µM and 107 µM.

For `O=C(/N=C1/OC(CN2CCOCC2)CN1C(=O)Nc1ccccc1)Nc1ccccc1` (configuration not stated), the EC50 was over 200 µM and the IC50 is over 200 µM. Regarding `Cc1cc(=O)n(-c2c(C)cccc2Cl)c(/C=C(\O)c2ccncc2)n1`, the EC50 is over 4.07 µM and the IC50 is over 4.07 µM. Regarding `Cc1nnc(N/N=C(/C(=O)C(C#N)c2ccccc2)C(C#N)c2ccccc2)n1N` (configuration not stated), the EC50 is over 224 µM and the IC50 amounted to 38.9 µM.

With `O=P1(N(CCCl)CCCl)NCCCO1` (configuration not stated), the EC50 was over 955 µM and the IC50 stood at 302 µM. With `CCCCCCCNC1=C(O)c2ccccc2C(=O)C1=O`, the EC50 is over 200 µM and the IC50 stood at 55 µM. In the case of `CC1(C)C(=O)N(c2ccccc2)C(=O)N1c1nc2ccccc2[nH]1`, the EC50 is over 155 µM and the 50% inhibitory concentration (IC50) was over 155 µM. As to `CN(C)CCNc1ccc(CO)c2sc3ccc(O)cc3c(=O)c12`, the EC50 was over 2 µM and the half-inhibitory concentration (IC50) was 0.105 µM.

With `Cc1ccc(/C=C/C(=O)c2sc(-n3nc(-c4ccccc4)cc3-c3ccccc3)nc2C)cc1`, the EC50 was over 11.2 µM and the IC50 was over 11.2 µM. Turning to `O=c1/c(=N\Nc2ccccc2)c2cccc3ccc4cccc1c4c32`, the EC50 was over 100 µM and the half-inhibitory concentration (IC50) is over 100 µM.

Regarding `S=C(N/N=C\C=N/NC(=S)N1CCCCCC1)N1CCCCCC1`, the EC50 is over 100 µM and the half-inhibitory concentration (IC50) came to 14.1 µM. Take `O=[N+]([O-])c1cccc2nc3ccccc3c(NCCCNc3c4ccccc4nc4cccc([N+](=O)[O-])c34)c12`: the EC50 is over 200 µM and the concentration for half-maximal inhibition (IC50) was 0.0631 µM. In the case of `O=C(CCCCC[n+]1ccccc1)Sc1ccccc1C(=O)NCc1ccc2c(c1)OCO2`, the EC50 was over 34.7 µM and the IC50 came to 5.37 µM. As to `COC(=O)CCCC=C(c1cc(Br)c(OC)c(C(F)(F)F)c1)c1cc(Br)c(OC)c(C(F)(F)F)c1`, the EC50 was over 200 µM and the IC50 came out at 40.7 µM. Regarding `NS(=O)(=O)c1ccc(NC(=O)c2cccn3c(=O)c4ccccc4nc23)cc1`, the result was inactive. On to `CCOC(=O)C1=C(O)c2ccc(C)cc2C(=O)C1=O`, for which the EC50 is over 955 µM and the IC50 was found to be 324 µM. As to `CN(C)c1nc2ccccc2[nH]1`, the outcome was inactive.

With `O=c1oc2ccccc2c(O)c1C(c1ccc2c(c1)OCO2)N1CCOCC1` (configuration not stated), the EC50 was over 200 µM and the concentration for half-maximal inhibition (IC50) was over 100 µM. Taken in the same sequence, the figures for `O=C(Nc1ccc([N+](=O)[O-])cc1)N(c1cc(Cl)ccn1)C1CCCCC1` were over 200 µM and 11 µM. On to `O=c1oc2ccccc2c2c1Sc1ccccc1N2`, for which the EC50 was over 51.3 µM and the IC50 was over 51.3 µM. Consider `COC(=O)[C@H](Cc1c[nH]c2ccccc12)NP(=O)(O)OCC1C=CC(n2cc(C)c(=O)[nH]c2=O)O1` (some centres not stated), for which the EC50 is 28.2 µM and the IC50 was over 200 µM. The like results for `NC(=O)NCOC(=S)SSSC(=S)OCNC(N)=O` were, in that order, over 200 µM and 32.4 µM.

Take `CN(Cc1ccccc1)C1(N(C)Cc2ccccc2)CC1`: the outcome was inactive.

With `COc1cc2[nH]c3c(c2cc1OC)CCN[C@]31CC[C@]2(CC3c4c(cc(OC)c(O)c42)CCN3C)C[C@H]1OC` (some centres not stated), the result was inactive. Regarding `COc1ccc2c3c([nH]c2c1[N+](=O)[O-])C(C)=NCC3`, the outcome was inactive. With `O=c1cc[nH]c2c1ccc1[nH]ccc(=O)c12`, the EC50 is over 200 µM and the IC50 was over 200 µM. Take `Nc1nc(N)c(N=Nc2ccc(S(=O)(=O)NC(=O)c3ccccc3)cc2)c(=O)[nH]1`: the EC50 is over 200 µM and the IC50 is over 200 µM.

Turning to `CCCCSC1CCSc2c1ccc1ccccc21` (configuration not stated), the outcome was inactive. As for `CCOC(=O)/C(=C\c1cccc(C(F)(F)F)c1)P(=O)(OCC)OCC`, the EC50 was over 95.5 µM and the IC50 came to 5.01 µM.

Take `CC(=O)CCC(=O)C(=[N+]=[N-])S(=O)(=O)c1ccccc1`: the EC50 is over 891 µM and the IC50 worked out at 151 µM. In the case of `COc1cc(C(=O)N2CCOCC2)cc(OC)c1OC`, the EC50 was over 200 µM and the IC50 was over 200 µM. On to `O=c1cc(-c2ccccc2)[nH]c2nccn12`, for which the EC50 was over 200 µM and the IC50 was over 200 µM. In the case of `CC(=O)Nc1ccc(/C=C/c2ccc(N=C=S)cc2S(=O)(=O)O)c(S(=O)(=O)O)c1`, the EC50 is over 21.9 µM and the IC50 is over 21.9 µM. As for `COc1nc(N=P(c2ccccc2)(c2ccccc2)c2ccccc2)cc(=O)[nH]1`, the outcome was inactive. For the compound `Cc1cc(=O)oc2c(CNC(CC(C)C)C(=O)O)c(O)ccc12` (configuration not stated), the EC50 was over 200 µM and the IC50 was over 200 µM. Take `CN(C)CCSC1=Nc2ccc(Cl)cc2C(c2ccccc2Cl)N(C)C1` (configuration not stated): the EC50 was over 200 µM and the IC50 was 20 µM. With `O=c1c2ccccc2nc(N/N=C/c2ccc(Cl)cc2)n1-c1ccccc1`, the EC50 is over 200 µM and the IC50 is over 200 µM. As to `Fc1ccc2c(c1)CN(CCN1COc3ccc(F)cc3C1)CO2`, the EC50 is over 8.13 µM and the IC50 is over 8.13 µM. For `CC1=CC(=C(c2ccc(N)cc2)c2ccc(N)cc2)C=CC1=N`, the outcome was inactive.

Regarding `CCOCc1c(C)cc(C)c(C2C(C(=O)c3ccccc3)N3c4ccccc4C=CC3C2(C#N)C(=O)OCC)c1C` (configuration not stated), the EC50 was over 200 µM and the IC50 came out at 33.9 µM. Take `Nc1ncn2c(n1)nc1ccccc12`: the EC50 is over 200 µM and the IC50 was over 200 µM. Take `COc1cc(Nc2nc3cc(C(F)(F)F)ccc3nc2C)cc(OC)c1OC`: the EC50 was over 60.3 µM and the IC50 was 31.6 µM. As to `CCOC(=O)CCC(NC(=O)c1ccc(Oc2nc3c(N)cc(C(F)(F)F)cc3nc2-c2ccccc2)cc1)C(=O)OCC` (configuration not stated), the EC50 is over 200 µM and the IC50 turned out to be 112 µM. The like results for `COC(=O)NC[C@@H]1OCc2cc3c(cc2[C@]12CC=CCC2)OCO3` were, in that order, over 107 µM and 6.92 µM. For the compound `Nc1ccc2c(c1)[O][Sn]([c]1ccccc1)([c]1ccccc1)[O]C2=O`, the outcome was inactive. For `CSCC(COC(C)=O)(CSC)c1ccncc1`, the EC50 is over 871 µM and the IC50 came to 501 µM. Regarding `CCOC(=O)C1C(=O)CC(C)(O)C(C(=O)OCC)C1c1ccc(N(C)C)cc1` (configuration not stated), the EC50 was over 200 µM and the IC50 is over 200 µM.

Consider `CCOC(=O)c1[nH]c2ccccc2c1C(=O)C[C@H](NC(=O)C(F)(F)F)C(=O)OC`, for which the EC50 is over 200 µM and the IC50 was over 200 µM. Regarding `CCCC[Si](CCCC)(CCCC)O[C@@H](/C=C/C(=O)OCC)[C@H](Cc1ccccc1)O[Si](CCCC)(CCCC)CCCC`, the EC50 was over 200 µM and the IC50 is over 200 µM. As for `CCN(CC)C(=O)c1c(N2CCOCC2)cc(N(CC)CC)oc1=O`, the EC50 is over 708 µM and the IC50 is over 708 µM. As to `Cc1nnc(NC2=NCCO2)s1`, the EC50 was over 200 µM and the IC50 was over 200 µM. On to `CNc1ncnc2c1nc(NC1CCCC1)n2C1OC(CO)C(O)C1O` (configuration not stated), for which the EC50 is over 200 µM and the half-maximal inhibitory concentration (IC50) is over 200 µM. As to `COc1ccc(/C=C(\C#N)c2ccccc2)cc1OC`, the EC50 was over 70.8 µM and the IC50 is over 70.8 µM. As for `O=c1[nH][nH]c(=O)n1Cc1cccc(Cn2c(=O)[nH][nH]c2=O)c1`, the EC50 is over 200 µM and the IC50 was over 200 µM.

Turning to `CCOC(=O)c1c(-c2ccccc2)csc1N`, the EC50 is over 123 µM and the 50% inhibitory concentration (IC50) was 107 µM. `CC1=CC(C)(C)N=C2SC(c3ccc(Cl)cc3)=NN12`: the EC50 is over 24.5 µM and the IC50 turned out to be 20 µM. The like results for `CC(C)CC(NC(=O)OC(C)(C)C)C(=O)N1CCCC1C(=O)OCc1ccccc1` (stereo not drawn) (Boc-Leu-Pro-OBn; configuration not given here) were, in that order, over 200 µM and 52.5 µM. As to `CC(=O)OCC(OC(C)=O)C(OC(C)=O)C(OC(C)=O)C(=O)CNn1c(-c2ccc(C)cc2)nc2ccccc2c1=O` (configuration not stated), the result was inactive. `Cc1ccc(NC(=O)CCc2nnc(N)o2)cc1`: the EC50 is over 380 µM and the IC50 is over 380 µM. Consider `Cc1cc(S(=O)(=O)NC2=NCc3c(F)cccc3N2)c(S)cc1Cl`, for which the EC50 is over 97.7 µM and the IC50 was 72.4 µM. Consider `COc1ccc(C2CC(=O)c3ccccc3O2)cc1` (configuration not stated), for which the EC50 was over 200 µM and the IC50 worked out at 97.7 µM. The like results for `Cc1cc2cc3c(=O)[nH]c(=O)cc-3n(CC(O)C(O)C(O)CO)c2cc1C` (configuration not stated) were, in that order, over 200 µM and over 200 µM.

Take `C[Si]1(C)C(c2ccccc2)=CC2C(c3ccccc3)(c3ccccc3)OC21c1ccccc1` (configuration not stated): the EC50 was over 4.27 µM and the concentration for half-maximal inhibition (IC50) was 1.17 µM. As to `CC1=C2CC[C@]2(C)[C@]23OCC(C)(CC2C1=O)C3O` (some centres not stated), the result was inactive. Take `CC1=C(C(=O)Nc2cccc(Cl)c2)C(c2ccc([N+](=O)[O-])cc2)C(C(=O)Nc2cccc(Cl)c2)=C(C)N1`: the EC50 is over 9.77 µM and the IC50 came out at 7.94 µM.

As to `CCOC(=O)c1cn(C)c(=S)n2c1nc1ccccc12`, the EC50 is over 200 µM and the IC50 is over 200 µM.
